Laboratory results as given in patent US20140315738A1, “MARINE MEDAKA GENES RESPONDING TO THE EXPOSURE OF ENDOCRINE-DISRUPTING CHEMICALS, AND METHOD FOR DIAGNOSING AN AQUATIC ECO-SYSTEM CONTAMINATION USING SAME” (priority 2011, published 2014).

Tested on: Javanese medaka (Oryzias javanicus) livers
Assay: real-time quantitative PCR of liver gene expression after exposure to BPA
Format: in vivo
Conditions: 76 μg/L, 48 hr, β-actin control gene
Description: To 3 L beaker with 2 L filtered seawater therein, 10 male Javanese medaka bred in culture water tank were transported each time, and acclimated for 24 hr. […] Additionally, five Javanese medaka of Example <1-1> were exposed to BPA (76 μg/L) for 48 hr. […] The Javanese medaka was transported to ice water, one at a time, which momentarily stunned it, followed by beheading and evisceration and liver removal.
Primers for real-time quantitative PCR (RT-PCR) for the above genes were designed and synthesized, and sequences of the primers of the genes for real time quantitative PCT are listed in Table 6 below.
With RNA template extracted with the method of Example <2-1>, cDNA was synthesized using AB High Capacity RAN-to-cDNA Kit (Applied Biosystems, USA). RNA in the amount of 1 μg was seeded, added with distilled water and titrated to 9 μl. 2×RT buffer (10 μl), and 20× enzyme Mix 1 μl were mixed well, centrifuged and precipitated, and allowed to react at 37° C. for 60 min. The reactant was heated at 95° C. for 5 min, after which reaction was completed. The synthesized cDNA was stored at −20° C.
To the 0.5 μg synthesized cDNA (corresponding to approximately 10 ng/μl), 0.8 primer pairs of corresponding genes (10 pmol/μl), and 2 SYBR1 mixture (10 μl) were added. The final amount was titrated to 20 μl using distilled water. At temperature condition of 95° C. 10 min, 95° C. 30 sec, 60° C. 30 sec, 72° C. 30 sec, 40 cycles of PCR were conducted.
CT values of the respective samples after exposure to BPA between control genes (β-actin) and genes of interest were compared with each other, and the relative expression differences of the genes of interest were quantified into relative values according to Relative Standard Curve (Table 7).

CC(C)(c1ccc(O)cc1)c1ccc(O)cc1 [BPA, Bisphenol A]
Fold difference, Apolipoprotein E1 (AP): +2.30 fold
Fold difference, Arylamine N-acetyl transferase (ANAT): −1.69 fold
Fold difference, Basigin (Bsgn): +4.25 fold
Fold difference, C1q-like adipose specific protein (C-ASP): −2.17 fold
Fold difference, Calcium binding protein P22 (CBP-P22): +1.19 fold
Fold difference, Catalase (Cat): −1.49 fold
Fold difference, Ceruloplasmin (Cer): +2.09 fold
Fold difference, Chitinase (Chi): −5.56 fold
Fold difference, Choline kinase (Chka): +4.18 fold
Fold difference, Choriogenin L (ChL): +50.00 fold
Fold difference, Complement component C8 beta (C8): −1.37 fold
Fold difference, Complement factor B/C2-B (CF-B/C2): −2.27 fold
Fold difference, Delta 6-desaturase (FD6D): +1.43 fold
Fold difference, Delta-6 fatty acyl desaturase (FADSD6): −1.39 fold
Fold difference, Glutaminase (Gls): −1.35 fold
Fold difference, Glutathione S-transferase (Gst): −1.85 fold
Fold difference, Hepcidin (Hep): −1.14 fold
Fold difference, Leukocyte elastase inhibitor (LE): +1.12 fold
Fold difference, Lipoprotein lipase (LPL): +1.11 fold
Fold difference, N-acetyltransferase (NAT13): −2.50 fold
Fold difference, Plasminogen (Plg): +1.25 fold
Fold difference, Retinol binding protein 4 (RBP4): +1.12 fold
Fold difference, Ring finger protein 141 (RFP): +1.23 fold
Fold difference, TBT-binding protein (TBT-bp): −1.66 fold
Fold difference, Transferrin (TF): −1.30 fold
Fold difference, Uridine phosphorylase 2 (Upp2): −1.72 fold
Fold difference, Vitellogenin 1 (Vit1): −100.00 fold
Fold difference, Warm temperature acclimation (C243) (Wap65): +1.07 fold
